The assay concerns organotypic hippocampal slice cultures (focal trauma to the CA1 region). As to the kind of experiment: in vitro model of traumatic brain injury: focal mechanical trauma to organotypic hippocampal slices, injury quantified by propidium iodide fluorescence. The settings on record: for effect of added pressure of gas on development of total injury, highest added pressure / effect of added pressure of gas on development of total injury, low added pressures: gas added to 1 atm of 95% air/5% CO2, FIG. 4 / FIG. 5; for effect of added pressure of gas on development of total injury, highest added pressure: highest pressure tested (about 2 atm added, about 3 atm total); for effect of added pressure of gas on development of total injury, low added pressures: low added pressures (up to about 1 atm); for predicted level of normalized injury after 72 hours / observed degree of normalized injury after 72 hours: normobaric; for predicted level of normalized injury after 72 hours: 75% test gas replacing nitrogen, calculated from dashed lines of FIG. 4 / FIG. 5; for observed degree of normalized injury after 72 hours: 75% test gas/20% oxygen/5% CO2 (test gas substituted for nitrogen), 37° C., injury relative to control (75% nitrogen, 1 atm, 72 h) = 1. The class given is cell-based, C57/BL6 mice. The text has this:
The properties of xenon and other gases were investigated in an in vitro model of traumatic brain injury (as described below in greater detail, under the heading “Example”). The model chosen involved creating a focal mechanical trauma centered on the CA1 region of cultured hippocampal brain slices, and assessing neurological injury using propidium iodide staining. A small solenoid retains a stylus 5 mm above a cultured hippocampal slice which is positioned using a micromanipulator. A fiber-optic light source illuminates the slice from beneath. As shown in (B) the stylus is constrained in a glass capillary and positioned just above the CA1 region of the hippocampus.
Organotypic hippocampal slice cultures were prepared as reported by Stoppini L, et al in “A simple method for organotypic cultures of nervous tissue” J Neurosci Methods 1991; 37:173-82, subject to some modifications. Briefly, brains were removed from seven-day-old C57/BL6 mice pups (Harlan UK Ltd., Bicester, Oxfordshire, UK) and placed in ice-cold “preparation” medium. The preparation medium contained Gey's balanced salt solution and 5 mg ml^−1 D-glucose (BDH Chemicals Ltd., Poole, Dorset, UK). The hippocampi were removed from the brains and 400 μm thick transverse slices were prepared using a McIllwain tissue chopper. Slices were transferred into ice-cold preparation medium, gently separated and then placed onto tissue culture inserts (Millicell-CM, Millipore Corporation, Billerica, Mass.) which were inserted into a six-well tissue culture plate. The wells contained “growth” medium which consisted of 50% Minimal Essential Media Eagle, 25% Hank's balanced salt solution, 25% inactivated horse serum, 2 mM L-glutamine, 5 mg ml^−1 D-glucose (BDH) and 1% antibiotic-antimycotic suspension. Slices were incubated at 37° C. in a 95% air/5% CO2 humidified atmosphere. The growth medium was changed every three days. Experiments were carried out after 14 days in culture.
After the hippocampal slices had been in culture for 14 days, the growth medium was changed to “experimental” medium. The experimental medium was serum-free and consisted of 75% Minimal Essential Media Eagle, 25% Hank's balanced salt solution, 2 mM L-glutamine, 5 mg ml^−1 D-glucose, 1% antibiotic-antimycotic suspension and 4.5 μM propidium iodide.
The trauma to the slices was produced with a specially designed apparatus (FIG. 1) which was based on published descriptions (Adamchik Y, et al “Methods to induce primary and secondary traumatic damage in organotypic hippocampal slice cultures” Brain Res Brain Res Protoc 2000; 5:153-8 and Adembri C, et al “Erythropoietin attenuates post-traumatic injury in organotypic hippocampal slices” J Neurotrauma 2004; 21:[…], 21). Under a stereomicroscope a stylus was positioned 5 mm above the CA1 region of the hippocampus using a three-axis micromanipulator. The stylus dropped onto the slice with an impact of 3.5 μJ when power to a small electromagnet was switched off. […] The distal part of the stylus was smooth and rounded in order to prevent perforation of the slice and the impact produced a focal injury with a diameter of 750±17 μm (mean±SD).
After traumatizing the CA1 region, the culture trays were transferred to a small pressure chamber which contained a high-speed fan for rapid gas mixing. The pressure chamber was capable of maintaining a constant pressure of up to six atmospheres for several days. The pressure chamber was housed in an incubator which was set at 37° C. for normothermic experiments or 32° C. for experiments at moderate hypothermia. Subsequently, the pressure chamber (gas volume 0.925 litre) was flushed with humidified control gas (95% air and 5% CO2) for 5 min at 5 litres min^−1 which ensures better than 99.99% gas replacement. After flushing, the pressure chamber was sealed, and slices under these conditions were considered to be the “injury controls” (75% nitrogen/20% oxygen/5% CO2). […]

Molecules are shown by their SMILES. Entries after “also recorded” stand apart in the source; their conditions may differ.

Consider `[Xe]` [xenon], for which the “effect of added pressure of gas on development of total injury, highest added pressure” value is on record as “toxicity; also recorded: significant neurotoxicity”; the “effect of added pressure of gas on development of total injury, low added pressures” value is given as “marked neuroprotection”; the “predicted level of normalized injury after 72 hours” value is 0.59; the “observed degree of normalized injury after 72 hours” value turned out to be 0.50±0.04.

Consider `[He]` [helium], for which the “effect of added pressure of gas on development of total injury, highest added pressure” value is “came back close to control levels”; the “effect of added pressure of gas on development of total injury, low added pressures” value is “potent neuroprotection; also recorded: injury decreased”; the “predicted level of normalized injury after 72 hours” value is recorded as 0.75; the “observed degree of normalized injury after 72 hours” value came out at 0.67±0.10.

`N#N` [nitrogen]: where the note is “dashed line in FIG. 4, independent of the effects of pressure”, the “theoretical effect of increased gas level per se (effects of helium/pressure subtracted)” value is on record as “detrimental in a fashion that is roughly linear with increasing amounts”. For the same compound, where the note is “nitrogen substituted for helium as added gas, all pressures 0.25-2 atm added, FIG. 4”, the “injury outcome with added nitrogen compared with added helium” value is “significantly worse injury outcome”.

(Values after US20100316729A1, “Use of Hyperbaric Conditions to Provide Neuroprotection” (AIR PRODUCTS AND CHEMICALS, INC., priority 2007, published 2010).)
